ChEMBL document CHEMBL6083182, “Development of Peptide Paratope Mimics Derived from the Anti-ROR1 Antibody and Long-Acting Peptide-Drug Conjugates for Targeted Cancer Therapy” (J Med Chem, 2024)
Calls of active or inactive are those of the source. No cut-off for these calls is given here. Where a SMILES comes first, the peptide text is derived from it. [ ]: non-standard residue; d: D form. The star is where a group is joined. X1 = COc1cccc2c1C(=O)c1c(O)c3c(c(O)c1C2=O)C[C@@](O)(C(=O)CO)C[C@@H]3O[C@H]1C[C@H](NC(=O)OCc2ccc(NC(=O)C(CCCNC(N)=O)NC(=O)C(NC(=O)CCCCCN3C(=O)CC(*)C3=O)C(C)C)cc2)[C@H](O)[C@H](C)O1; C18 diacid = O=C(O)CCCCCCCCCCCCCCCCC(=O)*; AEEA = NCCOCCOCC(=O)O

Legend:
[1] = Toxicity in BALB/c nude mouse xenografted with human MDA-MB-231 cells assessed as effect on heart at 5 mg/kg, iv administered once every 3 days for 27 days starting from day 3 by H and E staining based analysis; format: organism-based; conditions: in vivo, 576 h, time 24 day
[2] = Drug uptake in ROR1-positive human MDA-MB-231 cells cytoplasm assessed as increase in red fluorescence at 10 uM measured after 2 hrs by Hoechst 33342 staining based confocal fluorescence microscopic analysis; format: ADME, subcellular; conditions: mda-mb-231, 2 h
[3] = Toxicity in BALB/c nude mouse xenografted with human MDA-MB-231 cells assessed as effect on lung at 5 mg/kg, iv administered once every 3 days for 27 days starting from day 3 by H and E staining based analysis; format: organism-based; conditions: in vivo
[4] = molecular target: Inactive tyrosine-protein kinase transmembrane receptor ROR1 (Homo sapiens, UniProt Q01973); assay: Binding affinity to N-terminal His/GST-tagged recombinant human ROR1 (453 to 783 residues) extracted from baculovirus infected insect cells assessed as dissociation constant by SPR analysis
Inactive tyrosine-protein kinase transmembrane receptor ROR1, sequence (Q01973 whole entry, the tested form may be a part): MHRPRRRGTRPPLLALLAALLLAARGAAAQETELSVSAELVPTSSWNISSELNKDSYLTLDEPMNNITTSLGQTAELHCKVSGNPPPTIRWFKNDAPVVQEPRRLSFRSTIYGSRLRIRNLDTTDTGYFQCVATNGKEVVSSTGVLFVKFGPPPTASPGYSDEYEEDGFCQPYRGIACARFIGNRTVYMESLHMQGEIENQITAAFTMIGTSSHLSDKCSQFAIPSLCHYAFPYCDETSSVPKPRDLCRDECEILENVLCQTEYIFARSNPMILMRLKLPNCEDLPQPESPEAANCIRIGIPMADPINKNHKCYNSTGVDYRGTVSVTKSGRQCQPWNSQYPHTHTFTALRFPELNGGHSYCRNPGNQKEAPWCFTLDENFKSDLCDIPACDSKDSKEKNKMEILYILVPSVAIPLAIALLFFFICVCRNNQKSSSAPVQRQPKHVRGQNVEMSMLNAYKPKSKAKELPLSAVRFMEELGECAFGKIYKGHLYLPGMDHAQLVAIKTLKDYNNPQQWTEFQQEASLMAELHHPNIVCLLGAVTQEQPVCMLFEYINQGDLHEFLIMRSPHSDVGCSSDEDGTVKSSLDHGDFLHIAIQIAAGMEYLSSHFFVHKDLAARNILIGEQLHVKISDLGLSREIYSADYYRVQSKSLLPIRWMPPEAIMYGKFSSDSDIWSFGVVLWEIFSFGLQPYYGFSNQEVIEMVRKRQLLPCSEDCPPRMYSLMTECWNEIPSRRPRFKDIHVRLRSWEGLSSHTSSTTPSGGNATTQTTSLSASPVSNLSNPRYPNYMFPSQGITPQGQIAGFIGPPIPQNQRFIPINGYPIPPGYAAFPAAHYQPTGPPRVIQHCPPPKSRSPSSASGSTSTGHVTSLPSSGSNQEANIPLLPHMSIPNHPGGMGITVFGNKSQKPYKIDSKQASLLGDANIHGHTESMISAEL

[5] = MRT in Sprague-Dawley rat at 15 mg/kg, iv measured upto 12 hrs by UPLC-QTOF/MS analysis; format: ADME, organism-based; conditions: in vivo
[6] = Drug uptake in ROR1-negative human MCF7 cells assessed as increase in fluorescence intensity at 10 uM incubated for 2 hrs by Hoechst 33342 staining based confocal fluorescence microscopic analysis; format: ADME, cell-based; conditions: mcf7, 2 h
[7] = Cytotoxicity against human MCF-10A cells assessed as decrease in cell viability incubated for 24 hrs by CCK-8 assay; format: toxicity, cell-based
[8] = Clearance in Sprague-Dawley rat at 15 mg/kg, iv measured upto 12 hrs by UPLC-QTOF/MS analysis; format: ADME, organism-based; conditions: in vivo
[9] = Area under the first moment curve in Sprague-Dawley rat at 15 mg/kg, iv measured upto 12 hrs by UPLC-QTOF/MS analysis; format: ADME, organism-based; conditions: in vivo
MDA-MB-231 [10] = assay: Antitumor activity against human MDA-MB-231 cells xenografted in BALB/c nude mouse assessed as reduction in tumor volume at 5 mg/kg, iv measured after first injection starting from day 3 on day 6; format: functional, organism-based; conditions: time 3.0 day
MDA-MB-231 [11] = assay: Induction of apoptosis in human MDA-MB-231 cells at 10 uM incubated for 24 hrs by Annexin V-FITC/PI staining based flow cytometric analysis; format: functional, cell-based
[12] = Half life in Sprague-Dawley rat at 15 mg/kg, iv measured upto 12 hrs by UPLC-QTOF/MS analysis; format: ADME, organism-based; conditions: in vivo
[13] = AUC(0 to t) in Sprague-Dawley rat at 15 mg/kg, iv measured upto 12 hrs by UPLC-QTOF/MS analysis; format: ADME, organism-based; conditions: in vivo
[14] = Elimination rate constant in Sprague-Dawley rat at 15 mg/kg, iv measured upto 12 hrs by UPLC-QTOF/MS analysis; format: ADME, organism-based; conditions: in vivo
MDA-MB-231 [15] = assay: Induction of apoptosis in human MDA-MB-231 cells assessed as late apoptotic cells at 15 nM incubated for 24 hrs by AnnexinV-FITC/PI staining based flow cytometry (reference value: 0.034%); format: functional
MDA-MB-231 [16] = assay: Induction of apoptosis in human MDA-MB-231 cells assessed as necrotic cells at 15 nM incubated for 24 hrs by AnnexinV-FITC/PI staining based flow cytometry (reference value: 0.034%); format: functional
MDA-MB-231 [17] = assay: Induction of apoptosis in human MDA-MB-231 cells assessed as late apoptotic cells at 16 nM incubated for 24 hrs by AnnexinV-FITC/PI staining based flow cytometry (reference value: 0.034%); format: functional
[18] = Toxicity in BALB/c nude mouse xenografted with human MDA-MB-231 cells assessed as body weight loss at 5 mg/kg, iv administered once every 3 days for 27 days starting from day 3; format: organism-based; conditions: in vivo, 576 h, time 24 day
MDA-MB-231 [19] = assay: Cytotoxicity against ROR1-positive human MDA-MB-231 cells assessed as decrease in cell viability incubated for 24 hrs by CCK-8 assay; format: functional, cell-based; conditions: MDA-MB-231, 24 h
SK-HEP1 = assay: Cytotoxicity against human SK-HEP1 cells assessed as decrease in cell viability incubated for 24 hrs by CCK-8 assay; format: functional, cell-based; conditions: SK-HEP1, 24 h
MDA-MB-231 [20] = assay: Induction of apoptosis in human MDA-MB-231 cells assessed as early apoptotic cells at 15 nM incubated for 24 hrs by AnnexinV-FITC/PI staining based flow cytometry (reference value: 0%); format: functional
MDA-MB-231 [21] = assay: Induction of apoptosis in human MDA-MB-231 cells assessed as necrotic cells at 16 nM incubated for 24 hrs by AnnexinV-FITC/PI staining based flow cytometry (reference value: 0.034%); format: functional
MDA-MB-231 [22] = assay: Induction of apoptosis in human MDA-MB-231 cells assessed as viable cells at 15 nM incubated for 24 hrs by AnnexinV-FITC/PI staining based flow cytometry (reference value: 99.9%); format: functional; conditions: read-out: Activity
MCF7 = assay: Cytotoxicity against ROR1-negative human MCF7 cells assessed as decrease in cell viability incubated for 24 hrs by CCK-8 assay; format: functional, cell-based; conditions: MCF7, 24 h
[23] = Toxicity in BALB/c nude mouse xenografted with human MDA-MB-231 cells assessed as change in body weight at 5 mg/kg, iv measured after first injection starting from day 3 on day 6; format: organism-based; conditions: in vivo, 72 h, time 3 day
MDA-MB-231 [24] = assay: Induction of apoptosis in human MDA-MB-231 cells assessed as viable cells at 16 nM incubated for 24 hrs by AnnexinV-FITC/PI staining based flow cytometry (reference value: 99.9%); format: functional; conditions: read-out: Activity
[25] = Toxicity in BALB/c nude mouse xenografted with human MDA-MB-231 cells assessed as effect on kidney at 5 mg/kg, iv administered once every 3 days for 27 days starting from day 3 by H and E staining based analysis; format: organism-based; conditions: in vivo
[26] = AUC(0 to infinity) in Sprague-Dawley rat at 15 mg/kg, iv measured upto 12 hrs by UPLC-QTOF/MS analysis; format: ADME, organism-based; conditions: in vivo
[27] = Toxicity in BALB/c nude mouse xenografted with human MDA-MB-231 cells assessed as effect on liver at 5 mg/kg, iv administered once every 3 days for 27 days starting from day 3 by H and E staining based analysis; format: organism-based; conditions: in vivo, 576 h, time 24 day
[28] = Toxicity in BALB/c nude mouse xenografted with human MDA-MB-231 cells assessed as effect on spleen at 5 mg/kg, iv administered once every 3 days for 27 days starting from day 3 by H and E staining based analysis; format: organism-based; conditions: in vivo, 576 h, time 24 day
MDA-MB-231 [29] = assay: Induction of apoptosis in human MDA-MB-231 cells assessed as early apoptotic cells at 16 nM incubated for 24 hrs by AnnexinV-FITC/PI staining based flow cytometry (reference value: 0%); format: functional
[30] = Toxicity in BALB/c nude mouse xenografted in human MDA-MB-231 cells assessed as effect on AST level at 5 mg/kg, iv administered once every 3 days for 27 days starting from day 3; format: organism-based; conditions: in vivo, 576 h, time 24 day
[31] = Toxicity in BALB/c nude mouse xenografted with human MDA-MB-231 cells assessed as effect on ALT level at 5 mg/kg, iv administered once every 3 days for 27 days starting from day 3; format: organism-based; conditions: in vivo, 576 h, time 24 day
MDA-MB-231 [32] = assay: Antitumor activity against human MDA-MB-231 cells xenografted in BALB/c nude mouse assessed as tumor growth inhibition at 5 mg/kg, iv administered once every 3 days for 27 days starting from day 3; format: functional, organism-based; conditions: time 24.0 day

With `CC[C@H](C)[C@H](NC(=O)[C@H](CC(=O)O)NC(=O)[C@H](CO)NC(=O)CNC(=O)[C@H](CSC1CC(=O)N(CCCCCC(=O)NC(C(=O)NC(CCCNC(N)=O)C(=O)Nc2ccc(COC(=O)N[C@H]3C[C@H](O[C@H]4C[C@](O)(C(=O)CO)Cc5c(O)c6c(c(O)c54)C(=O)c4c(OC)cccc4C6=O)O[C@@H](C)[C@H]3O)cc2)C(C)C)C1=O)NC(=O)CNC(=O)[C@H](CCCCN)NC(=O)COCCOCCNC(=O)COCCOCCNC(=O)[C@H](CCC(=O)O)NC(=O)CCCCCCCCCCCCCCCCC(=O)O)C(=O)N[C@@H](CC(N)=O)C(=O)N[C@@H](CC(=O)O)C(=O)N[C@@H](CCCNC(=N)N)C(=O)N[C@@H](CCC(N)=O)C(=O)N[C@H](C(=O)N1CCC[C@H]1C(=O)NCC(=O)N[C@@H](Cc1ccc(O)cc1)C(=O)N[C@@H](CO)C(=O)N[C@H](C(=O)N[C@@H](Cc1ccc(O)cc1)C(=O)N[C@@H](Cc1c[nH]c2ccccc12)C(=O)NCC(=O)N[C@@H](CC(=O)O)C(=O)N[C@@H](Cc1ccccc1)C(N)=O)[C@@H](C)O)[C@@H](C)CC` (some centres undefined) ({C18 diacid}-E[AEEA][AEEA]KGC(X1)GSDINDRQIPGYSTYWGDF-NH2) the Activity [1] was “Non-toxic”, the Drug uptake [2] was “Active” and the Activity [3] was “Non-toxic”. The Kd [4] was 1.72 nM, the MRT [5] was 3.78 h and the Drug uptake [6] was “Not_active”. For the same compound, the IC50 at 24 h [7] was 23200 nM, the CL [8] was 0.001 mg/ng/mL/h and the AUMC [9] was 217552.348 ng/mL.hr^2. The Activity (MDA-MB-231 [10]) was “inactive”, the Activity (MDA-MB-231 [11]) was “Active; Exhibited Apoptosis Primarily In Early Stage” and the half-life [12] was 2.62 h. For the same compound, the AUCt [13] was 55100 ng·h/mL, the k el at 12 h [14] was 8.92e-05 s⁻¹ and the Activity (MDA-MB-231 [15]) was 5.59%. For the same compound, the Activity (MDA-MB-231 [16]) was 1.02%, the Activity (MDA-MB-231 [17]) was 9.51% and the Activity [18] was “Non-toxic”. It also gave an IC50 (MDA-MB-231 [19]) of 15 nM, an IC50 (SK-HEP1) of 576 nM and an Activity (MDA-MB-231 [20]) of 13.3%. It also gave an Activity (MDA-MB-231 [21]) of 0.5%, a viability at 0.015 µM (MDA-MB-231 [22]) of 80.1% and an IC50 (MCF7) of 10500 nM. The Activity [23] was “Non-toxic”, the viability at 0.016 µM (MDA-MB-231 [24]) was 50.3% and the Activity [25] was “Non-toxic”. For the same compound, the AUC(0-inf) [26] was 57800 ng·h/mL, the Activity [27] was “Non-toxic” and the Activity [28] was “Non-toxic”. For the same compound, the Activity (MDA-MB-231 [29]) was 39.7%, the Activity [30] was “Toxic” and the Activity [31] was “Toxic”. The Activity (MDA-MB-231 [32]) was “Active”.
